Measurements taken from US12285433B2, “Diltiazem for use in the treatment of microbial infections” (UNIVERSITE CLAUDE BERNARD LYON 1, priority 2018, dated 2025).

Legend:
IFN-λ2 (IFNL2) gene = assay: In vivo induction of IFN-λ2 (IFNL2) gene expression after intranasal instillation in BALB/c mice (RT-qPCR); details: 20 mg/kg intranasal, D0/D1/D2 or D0/D2/D4, sampled D5
[1] = tested on: respiratory syncytial virus (RSV); assay: RSV challenge infection in BALB/c mouse model, pulmonary viral titers by RT-qPCR (F gene); assay type: in vivo; details: BALB/c mice, 5×10^5 PFU RSV intranasally; 50 mg/kg per os, 5 treatments; day 5 post-infection
Method: FIG. 4D schematically represents the chronology of infection and treatment of the mice: • BALB/c mice were randomized into 3 groups of 5 individuals and then infected intranasally with 50 μL of a viral suspension containing 5×10^5 PFU of RSV (Day 0). Six hours before infection, the mice were treated with either 40 mg/kg intraperitoneal ribavirin (RSV RIB) or 50 mg/kg diltiazem peros (RSV DIL), or PBS (RSV PBS) as negative control. • The same treatments were repeated every 24 h, with a total of 3 treatments for ribavirin and 5 treatments for diltiazem or PBS. • On day 5 post-infection (D5, corresponding to the peak of viral replication), the mice in each group were euthanized and their lungs were aseptically recovered to measure their pulmonary viral titers by RTqPCR (F gene).
RT-qPCR quantification of the RSV viral genome copy number (quantifying the copies of the F gene) relative to the total amount of RNA extracted from the lungs at 5 days post-infection was performed, and the results are presented in FIG. 4E.
The following statistical tests were used: One-way ANOVA with Bonferroni post-test to compare each virus to the mock condition (PBS treatment). *p<0.05.

[2] = tested on: respiratory syncytial virus (Long strain, ATCC VR-26); assay: RSV replication in infected reconstituted human respiratory epithelia (RT-qPCR, F gene); assay type: cell-based; details: MOI 1; 90 μM basolateral, 4 administrations from 5 hpi; 6 days post-infection
Method: Reconstituted human respiratory epithelia (MucilAir® HAE, Epithelix) were maintained in culture at the air-liquid interface according to the instructions of the supplier Epithelix and were infected with respiratory syncytial virus (Long strain, ATCC VR-26) at a multiplicity of infection (MOI) 1, then treated or not with diltiazem (90 μM) via their culture medium at their basolateral pole. Diltiazem treatment was performed at 5 hours post-infection and then repeated for 3 consecutive days (4 administrations in total).
At 6 days post-infection, samples at the apical pole of treated and untreated infected epithelia, as well as the epithelia themselves, were lysed with 150 μL of RLT buffer (Qiagen). The process of the experiment is schematically represented in FIG. 4A.
Total RNA was extracted using the RNeasy Kit (Qiagen), according to the supplier's instructions, for quantification of viral genome copy number (F gene) by RT-qPCR at the apical pole, i.e. in the supernatant (FIG. 4B), as well as in the epithelia (FIG. 4C).

[3] = tested on: genes encoding the type III interferons IFN-λ1, IFN-λ2 and IFN-λ3; assay: RNAseq expression of type III interferon genes and response genes, basolateral treatment of reconstituted human respiratory epithelia (MucilAir HAE); assay type: cell-based; details: 90 μM via basolateral pole, 3 days (3 administrations)
Method: (§1) Reconstituted human respiratory epithelia (MucilAir® HAE, Epithelix) maintained in culture at the air-liquid interface according to the instructions of the supplier Epithelix, were treated or not with diltiazem (90 μM) via their culture medium at their basolateral pole. The diltiazem treatment was repeated for 3 consecutive days (3 administrations in total).
Treated and untreated epithelia were then lysed with 150 μL of RLT buffer (Qiagen). […] Each library was amplified, quantified and indexed with primers provided in the ScriptSeq™ Index PCR Primers Kit (RSBC10948, Epicentre) and sequenced. Sequencing was conducted on an Illumina HiSeq 2500 system with a minimum requirement of 40 million “reads” sequenced per sample.
The demultiplexing of the data and the conversion of the BCL files resulting from the sequencing into FASTQ files were carried out using Illumina's bcl2fastq tool, in its version 1.8.4. […] A pseudo-alignment of the trimmed reads on the human genome (Homo Sapiens: GRCh38.p11) using the Kallisto software was performed, followed by a statistical analysis using the R 3.3.1 software and the EdgeR 3.14.0 package.
The differential in gene expression between epithelial cells treated with diltiazem and control epithelial cells was calculated using a linear model with a p-value correction by the Benjamini-Hochberg method. […]

[4] = tested on: interferon lambda 1 (IL-29); assay: ELISA measurement of interferon lambda 1 (IL-29) secretion by reconstituted human respiratory epithelia; assay type: cell-based; details: ELISA after 72 h; 90 μM via basolateral pole, 3 administrations
Method: as §1, with “Epithelix) were” for “Epithelix)”, “Epithelix and” for “Epithelix,”
Secretion levels (pg/mL) of interferon lambda 1 (IL-29) at the apical and basolateral poles of human respiratory epithelia treated and untreated with diltiazem were measured by ELISA after 72 h of treatment according to the supplier's instructions (#3570-1H, Mabtech, Stockholm, Sweden).

[5] = tested on: human parainfluenza virus type 3 (strain C243 ATCC VR-93); assay: hPIV-3 replication in reconstituted human respiratory epithelia (cytopathic effect, TEER, TCID50 titration in LLC-MK2 cells); assay type: cell-based; details: MOI 0.1, 90 μM basolateral daily
Method: Reconstituted human respiratory epithelia were infected with human parainfluenza virus type 3 (strain C243 ATCC VR-93) at an MOI of 0.1, and treatment of the basolateral medium with 90 μM diltiazem was started 2 hours post-infection and continued daily for 4 consecutive days. Transepithelial electrical resistance (TEER), which reflects the integrity of the epithelium, was measured once daily from 48 h post-infection to 120 hours post-infection.
Apical infectious viral titers (TCID50/mL) were determined in LLC-MK2 cells from washings collected starting 48 h post-infection (hpi), and up to 120 hpi, as shown in FIG. 5A.

[6] = tested on: recombinant hMPV-GFP virus (strain C-85473); assay: hMPV replication in reconstituted human respiratory epithelia (GFP epifluorescence, RT-qPCR of N gene); assay type: cell-based, human metapneumovirus; details: MOI 0.1
Method: Viral replication in reconstituted human epithelial models (MucilAir® HAE, Epithelix) of nasal origin was studied on epithelia treated or not treated with diltiazem. To that end, (i) fluorescence light microscopy photos were used to evaluate the efficacy and progression of the infection and (ii) quantification of the viral genome by RTqPCR was performed, on the one hand at the apical pole of the epithelium (surface harvesting) to quantify the excretion of viral progeny, and on the other hand in the total lysates of epithelial cells at end point (day 5 post-infection) to quantify intracellular viral replication within the epithelium.
Human respiratory epithelia (Mucilair, Epithelix) were infected with a recombinant hMPV-GFP virus (strain C-85473) at an MOI of 0.1, then treated (via the basolateral medium of the epithelia) or not with 3 successive doses of diltiazem at 90 μM at D0, D1 and D3 post-infection (3 epithelia per condition).
Epifluorescence microscopy observations were performed on D4 post-infection to observe the impact of diltiazem treatment on viral replication (FIG. 7B).
On day 3 post-infection, a wash at the apical pole of the infected epithelium, treated or not, was performed in order to harvest the viral progeny produced. The genomic viral RNA was extracted and quantified by RT-qPCR (Biosystems™ PowerUp™ SYBR™ Green, Thermo Fisher Scientific) using a plasmid containing the HMPV N gene. The results are expressed in copies of the N gene/μg RNA extracted (FIG. 7C).
On day 5 post-infection, epithelial cells were harvested and lysed to extract total RNA. Total RNAs corresponding to the hMPV N viral gene were quantified by Rt-qPCR (Biosystems™ PowerUp™ SYBR™ Green, Thermo Fisher Scientific), using a range made from a plasmid containing the HMPV N gene. The results are expressed in copies of the N gene/μg RNA extracted (FIG. 7D).

[7] = tested on: IFIT1, IFIT2, IFIT3, IF127, IFN-λ1, IFN-λ2, IF144L and IFITM1 genes; assay: RT-qPCR confirmation of induction of 8 genes associated with the type III interferon response; assay type: cell-based, human; details: 90 μM via basolateral pole, 3 days

COc1ccc([C@@H]2Sc3ccccc3N(CCN(C)C)C(=O)[C@@H]2OC(C)=O)cc1 [diltiazem]
IFN-λ2 (IFNL2) gene expression in nasal cavities relative to mock-treated mice (IFN-λ2 (IFNL2) gene): activates the IFN III pathway
pulmonary viral titers (RSV F gene copies, RT-qPCR) compared with PBS control group and ribavirin-treated group [1]: significantly reduced pulmonary viral titers
amount of RSV viral genome (F gene) in the culture supernatant (apical pole) compared with untreated epithelia [2]: much lower
amount of RSV viral genome (F gene) in the epithelium compared with untreated epithelia [2]: much lower
expression of type III interferon response genes (IF144L, IFIT1, IFIT2, IFIT3, IFITM1, ISG15, MX1, MX2, OAS1, OAS2, OAS3, OASL, RSAD2, STAT1) [3]: significantly stimulates the expression
IFN-λ1 (IL-29) secretion at the apical pole [4]: very sharply increased
IFN-λ1 (IL-29) secretion at the basolateral pole [4]: significant, but less marked, increase
transepithelial electrical resistance (TEER), integrity of the epithelium ([5]; 48 to 120 hpi): integrity appears to be more preserved
cytopathic effects induced by hPIV-3 (microscopy) ([5]; 96 and 120 hpi): greater and easily visible microscopically in untreated reconstituted human respiratory epithelia, unlike those treated with diltiazem
infectious viral titer at the apical surface at 96 h post-infection ([5]; untreated 10^7): 10^5 TCID50/mL
fluorescence corresponding to viral expression of GFP (epifluorescence microscopy) ([6]; 90 μM basolateral at D0, D1, D3, D4 post-infection): very few fluorescent cells
reduction of viral genome (N gene) in epithelia (total lysate) versus untreated epithelia ([6]; 90 μM basolateral at D0, D1, D3, day 5 post-infection): 4 log 10
reduction of viral genome (N gene) in apical supernatants versus untreated epithelia ([6]; 90 μM basolateral, day 3 post-infection): 2 log 10
expression of the IFIT1, IFIT2, IFIT3, IF127, IFN-λ1, IFN-λ2, IF144L and IFITM1 genes compared with untreated epithelia [7]: significant increase
